Broadly, the pIC50 is the IC50 on a negative log10 scale, so that one unit is a factor of ten.

Experiment [1] deals with T1, AR-VP16 (Homo sapiens, UniProt P10275).
T1 sequence (P10275 560-920 limits assumed): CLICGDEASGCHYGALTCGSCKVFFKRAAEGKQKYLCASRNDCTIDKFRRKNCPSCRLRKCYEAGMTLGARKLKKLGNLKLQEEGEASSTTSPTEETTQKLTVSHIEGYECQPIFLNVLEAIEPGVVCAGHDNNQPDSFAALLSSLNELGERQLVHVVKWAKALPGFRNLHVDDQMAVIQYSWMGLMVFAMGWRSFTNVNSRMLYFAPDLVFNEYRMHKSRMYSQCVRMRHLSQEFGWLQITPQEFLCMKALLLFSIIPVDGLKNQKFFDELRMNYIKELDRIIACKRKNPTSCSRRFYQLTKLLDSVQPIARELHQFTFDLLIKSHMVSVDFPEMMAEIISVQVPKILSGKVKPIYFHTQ
As to the kind of experiment: AR-VP16 DNA Binding Assay, agonist mode (HepG2 cells). The format is cell-based. The settings on record: Emax >20x DMSO control = agonist.

In experiment [2] the target is T1, AR-VP16. As to the kind of experiment: AR-VP16 DNA Binding Assay, antagonist mode (HepG2 cells, 0.1 nM R1881). The format is cell-based. The method in brief: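 Transfected HepG2 cells expressing AR-VP16 received serially diluted compound in charcoal-stripped-serum RPMI the day after transfection, with 0.1 nM R1881 (final) added only for antagonist testing. After 48 h, cells were lysed for measurement.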

Each structure is given as a SMILES string. pIC50: −log10 of the molar value. Bounds are passed on as bounds.

Consider `N#Cc1ncc(N2C(=O)C3(CCC3)N(c3ccc(C(=O)Nc4ccncc4)c(F)c3)C2=S)cc1C(F)(F)F` [Compound 263, 4-(7-(6-Cyano-5-(trifluoromethyl)pyridin-3-yl)-8-oxo-6-thioxo-5,7-diazaspiro[3.4]octan-5-yl)-2-fluoro-N-(pyridin-4-yl)benzamide], for which the “ARVP16 DNA Binding Assay (Agonist mode): Agonist?” value (from here on “ARVP16 DNA Binding Assay”) on AR-VP16 [1] is recorded as “Yes (Agonist defined as a compound whose Emax in the ARVP16 DNA Binding Assay (Agonist mode) is >20x DMSO control)”. The same molecule had a negative logarithm of the IC50 (pIC50) at AR-VP16 [2] above 6.00.
As to `N#Cc1ncc(N2C(=O)C3(CCC3)N(c3ccc(C(=O)NCc4ccco4)c(F)c3)C2=S)cc1C(F)(F)F` [Compound 266, 4-(7-(6-Cyano-5-(trifluoromethyl)pyridin-3-yl)-8-oxo-6-thioxo-5,7-diazaspiro[3.4]octan-5-yl)-2-fluoro-N-(furan-2-ylmethyl)benzamide], the “ARVP16 DNA Binding Assay” value on AR-VP16 [1] is given as “No (Agonist defined as a compound whose Emax in the ARVP16 DNA Binding Assay (Agonist mode) is >20x DMSO control)”. In addition, the pIC50 on AR-VP16 [2] is above 6.00.
`CN1CCN(CCCNC(=O)c2ccc(N3C(=S)N(c4cnc(C#N)c(C(F)(F)F)c4)C(=O)C34CCC4)cc2F)CC1` [Compound 269, 4-(7-(6-Cyano-5-(trifluoromethyl)pyridin-3-yl)-8-oxo-6-thioxo-5,7-diazaspiro[3.4]octan-5-yl)-2-fluoro-N-(3-(4-methylpiperazin-1-yl)propyl)benzamide]: the “ARVP16 DNA Binding Assay” value on AR-VP16 [1] is “No (Agonist defined as a compound whose Emax in the ARVP16 DNA Binding Assay (Agonist mode) is >20x DMSO control)”. Also, the pIC50 on AR-VP16 [2] was above 6.00.
With `N#Cc1ncc(N2C(=O)C3(CCC3)N(c3ccc(C(=O)N4CCCC4)c(F)c3)C2=S)cc1C(F)(F)F` [Compound 270, 5-(5-(3-Fluoro-4-(pyrrolidine-1-carbonyl)phenyl)-8-oxo-6-thioxo-5,7-diazaspiro[3.4]octan-7-yl)-3-(trifluoromethyl)picolinonitrile], at AR-VP16 [1], the “ARVP16 DNA Binding Assay” value is given as “No (Agonist defined as a compound whose Emax in the ARVP16 DNA Binding Assay (Agonist mode) is >20x DMSO control)”. The pIC50 at AR-VP16 [2] is below 6.00.
Take `N#Cc1ncc(N2C(=O)C3(CCC3)N(c3ccc(C(=O)N4CCOCC4)c(F)c3)C2=S)cc1C(F)(F)F` [Compound 271, 5-(5-(3-Fluoro-4-(morpholine-4-carbonyl)phenyl)-8-oxo-6-thioxo-5,7-diazaspiro[3.4]octan-7-yl)-3-(trifluoromethyl)picolinonitrile]: the “ARVP16 DNA Binding Assay” value on AR-VP16 [1] is reported as “No (Agonist defined as a compound whose Emax in the ARVP16 DNA Binding Assay (Agonist mode) is >20x DMSO control)”. Also, the pIC50 at AR-VP16 [2] was below 6.00.
In the case of `Cc1cc(N2C(=O)C3(CCC3)N(c3ccc(C(=O)Nc4ccccc4)c(F)c3)C2=S)cnc1C#N` [Compound 272, 4-(7-(6-Cyano-5-methylpyridin-3-yl)-8-oxo-6-thioxo-5,7-diazaspiro[3.4]octan-5-yl)-2-fluoro-N-phenylbenzamide], the “ARVP16 DNA Binding Assay” value at AR-VP16 [1] is “No (Agonist defined as a compound whose Emax in the ARVP16 DNA Binding Assay (Agonist mode) is >20x DMSO control)”. This molecule also had a pIC50 at AR-VP16 [2] above 6.00.
On to `Cc1cc(N2C(=O)C3(CCC3)N(c3ccc(C(=O)NCc4cccs4)c(F)c3)C2=S)cnc1C#N` [Compound 274, 4-(7-(6-Cyano-5-methylpyridin-3-yl)-8-oxo-6-thioxo-5,7-diazaspiro[3.4]octan-5-yl)-2-fluoro-N-(thiophen-2-ylmethyl)benzamide], for which the “ARVP16 DNA Binding Assay” value on AR-VP16 [1] is given as “No (Agonist defined as a compound whose Emax in the ARVP16 DNA Binding Assay (Agonist mode) is >20x DMSO control)”. In addition, the negative logarithm of the IC50 (pIC50) at AR-VP16 [2] was above 6.00.
Consider `Cc1cc(N2C(=O)C3(CCC3)N(c3ccc(C(=O)NCCCN4CCCC4)c(F)c3)C2=S)cnc1C#N` [Compound 275, 4-(7-(6-Cyano-5-methylpyridin-3-yl)-8-oxo-6-thioxo-5,7-diazaspiro[3.4]octan-5-yl)-2-fluoro-N-(3-(pyrrolidin-1-yl)propyl)benzamide], for which the “ARVP16 DNA Binding Assay” value on AR-VP16 [1] is given as “No (Agonist defined as a compound whose Emax in the ARVP16 DNA Binding Assay (Agonist mode) is >20x DMSO control)”. In addition, the pIC50 at AR-VP16 [2] was below 6.00.
In the case of `CN1CCC(NC(=O)c2ccc(N3C(=S)N(c4cnc(C#N)c(C(F)(F)F)c4)C(=O)C34CCC4)cc2F)CC1` [Compound 276, 4-(7-(6-Cyano-5-(trifluoromethyl)pyridin-3-yl)-8-oxo-6-thioxo-5,7-diazaspiro[3.4]octan-5-yl)-2-fluoro-N-(1-methylpiperidin-4-yl)benzamide], the “ARVP16 DNA Binding Assay” value on AR-VP16 [1] is “No (Agonist defined as a compound whose Emax in the ARVP16 DNA Binding Assay (Agonist mode) is >20x DMSO control)”. At AR-VP16 [2], this molecule gave a pIC50 below 6.00.
The matching figures for `CCCCNC(=O)c1ccc(N2C(=S)N(c3cnc(C#N)c(C(F)(F)F)c3)C(=O)C23CCC3)cc1F` [Compound 277, N-Butyl-4-(7-(6-cyano-5-(trifluoromethyl)pyridin-3-yl)-8-oxo-6-thioxo-5,7-diazaspiro[3.4]octan-5-yl)-2-fluorobenzamide]: “No (Agonist defined as a compound whose Emax in the ARVP16 DNA Binding Assay (Agonist mode) is >20x DMSO control)” and above 6.00.
As for `CC(C)NC(=O)c1ccc(N2C(=S)N(c3cnc(C#N)c(C(F)(F)F)c3)C(=O)C23CCC3)cc1F` [Compound 279, 4-(7-(6-Cyano-5-(trifluoromethyl)pyridin-3-yl)-8-oxo-6-thioxo-5,7-diazaspiro[3.4]octan-5-yl)-2-fluoro-N-isopropylbenzamide], the “ARVP16 DNA Binding Assay” value at AR-VP16 [1] is “No (Agonist defined as a compound whose Emax in the ARVP16 DNA Binding Assay (Agonist mode) is >20x DMSO control)”. The molecule also gave a pIC50 at AR-VP16 [2] above 6.00.
For `CC(C)CNC(=O)c1ccc(N2C(=S)N(c3cnc(C#N)c(C(F)(F)F)c3)C(=O)C23CCC3)cc1F` [Compound 280, 4-(7-(6-Cyano-5-(trifluoromethyl)pyridin-3-yl)-8-oxo-6-thioxo-5,7-diazaspiro[3.4]octan-5-yl)-2-fluoro-N-isobutylbenzamide], the “ARVP16 DNA Binding Assay” value at AR-VP16 [1] is recorded as “No (Agonist defined as a compound whose Emax in the ARVP16 DNA Binding Assay (Agonist mode) is >20x DMSO control)”. Further, the pIC50 on AR-VP16 [2] is above 6.00.
For `N#Cc1ncc(N2C(=O)C3(CCC3)N(c3ccc(C(=O)NCC4CCCC4)c(F)c3)C2=S)cc1C(F)(F)F` [Compound 283, 4-(7-(6-Cyano-5-(trifluoromethyl)pyridin-3-yl)-8-oxo-6-thioxo-5,7-diazaspiro[3.4]octan-5-yl)-N-(cyclopentylmethyl)-2-fluorobenzamide], the “ARVP16 DNA Binding Assay” value on AR-VP16 [1] is listed as “No (Agonist defined as a compound whose Emax in the ARVP16 DNA Binding Assay (Agonist mode) is >20x DMSO control)”. Further, the negative logarithm of the IC50 (pIC50) at AR-VP16 [2] was above 6.00.
Take `N#Cc1ncc(N2C(=O)C3(CCC3)N(c3ccc(C(=O)NCc4cccc(Cl)c4)c(F)c3)C2=S)cc1C(F)(F)F` [Compound 288, N-(3-Chlorobenzyl)-4-(7-(6-cyano-5-(trifluoromethyl)pyridin-3-yl)-8-oxo-6-thioxo-5,7-diazaspiro[3.4]octan-5-yl)-2-fluorobenzamide]: on AR-VP16 [1], the “ARVP16 DNA Binding Assay” value is on record as “No (Agonist defined as a compound whose Emax in the ARVP16 DNA Binding Assay (Agonist mode) is >20x DMSO control)”. The molecule further had a pIC50 on AR-VP16 [2] above 6.00.
Take `N#Cc1ncc(N2C(=O)C3(CCC3)N(c3ccc(C(=O)NCc4ccc(Cl)cc4)c(F)c3)C2=S)cc1C(F)(F)F` [Compound 289, N-(4-Chlorobenzyl)-4-(7-(6-cyano-5-(trifluoromethyl)pyridin-3-yl)-8-oxo-6-thioxo-5,7-diazaspiro[3.4]octan-5-yl)-2-fluorobenzamide]: the “ARVP16 DNA Binding Assay” value on AR-VP16 [1] is given as “No (Agonist defined as a compound whose Emax in the ARVP16 DNA Binding Assay (Agonist mode) is >20x DMSO control)”. The same molecule gave a pIC50 at AR-VP16 [2] above 6.00.
On to `N#Cc1ncc(N2C(=O)C3(CCC3)N(c3ccc(C(=O)NCc4cnccn4)c(F)c3)C2=S)cc1C(F)(F)F` [Compound 290, 4-(7-(6-Cyano-5-(trifluoromethyl)pyridin-3-yl)-8-oxo-6-thioxo-5,7-diazaspiro[3.4]octan-5-yl)-2-fluoro-N-(pyrazin-2-ylmethyl)benzamide], for which, at AR-VP16 [1], the “ARVP16 DNA Binding Assay” value is listed as “No (Agonist defined as a compound whose Emax in the ARVP16 DNA Binding Assay (Agonist mode) is >20x DMSO control)”. At AR-VP16 [2], this molecule gave a pIC50 above 6.00.
As to `Cc1ccc(CNC(=O)c2ccc(N3C(=S)N(c4cnc(C#N)c(C(F)(F)F)c4)C(=O)C34CCC4)cc2F)o1` [Compound 291, 4-(7-(6-Cyano-5-(trifluoromethyl)pyridin-3-yl)-8-oxo-6-thioxo-5,7-diazaspiro[3.4]octan-5-yl)-2-fluoro-N-((5-methylfuran-2-yl)methyl)benzamide], the “ARVP16 DNA Binding Assay” value on AR-VP16 [1] is recorded as “No (Agonist defined as a compound whose Emax in the ARVP16 DNA Binding Assay (Agonist mode) is >20x DMSO control)”. On AR-VP16 [2], this molecule gave a negative logarithm of the IC50 (pIC50) above 6.00.
For `N#Cc1ncc(N2C(=O)C3(CCC3)N(c3ccc(CCCC(=O)Nc4ccccc4)cc3)C2=S)cc1C(F)(F)F` [Compound 292, 4-(4-(7-(6-Cyano-5-(trifluoromethyl)pyridin-3-yl)-8-oxo-6-thioxo-5,7-diazaspiro[3.4]octan-5-yl)phenyl)-N-phenylbutanamide], the “ARVP16 DNA Binding Assay” value on AR-VP16 [1] is listed as “No (Agonist defined as a compound whose Emax in the ARVP16 DNA Binding Assay (Agonist mode) is >20x DMSO control)”. For the same molecule, the pIC50 on AR-VP16 [2] is below 6.00.
